From PubChem BioAssay AID248 (DTP/NCI, 2004)
Values joined by “and” are separate entries in the source; they are usually repeats but may differ in a detail not shown here. Equal values may be shown once. Toxic doses and inconclusive results are not listed. Rule as the data show it: active = T/C of 150% or more; inactive = T/C below 125%.

System: L1210 leukemia ip in BDF1 mice, survival T/C
Test: NCI In Vivo Anticancer Drug Screen. Data for tumor model L1210 Leukemia (intraperitoneal) in B6D2F1 (BDF1) mice
Conditions: endpoint: mean survival time, higher = longer survival
How it was run: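 Each compound was tested against a transplantable tumor grown in mice. The endpoint was survival, with treated animals benchmarked against vehicle controls as a simple ratio.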

[1] = dose: 100.0 mg/kg/injection, schedule: Q04DX003 (ip), vehicle: saline with Tween-80
[2] = dose: 200.0 mg/kg/injection, schedule: Q04DX003 (ip), vehicle: saline with Tween-80
[3] = dose: 400.0 mg/kg/injection, schedule: Q04DX003 (ip), vehicle: saline with Tween-80
[4] = dose: 100.0 mg/kg/injection, schedule: Q01DX009 (ip), vehicle: saline
[5] = dose: 100.0 mg/kg/injection, schedule: Q04DX003 (ip), vehicle: saline
[6] = dose: 200.0 mg/kg/injection, schedule: Q01DX009 (ip), vehicle: saline
[7] = dose: 200.0 mg/kg/injection, schedule: Q04DX003 (ip), vehicle: saline
[8] = dose: 400.0 mg/kg/injection, schedule: Q01DX009 (ip), vehicle: saline
[9] = dose: 400.0 mg/kg/injection, schedule: Q04DX003 (ip), vehicle: saline
[10] = dose: 100.0 mg/kg/injection, schedule: Q04DX002 (ip), vehicle: Klucel (hydroxypropylcellulose) (HPC)
[11] = dose: 200.0 mg/kg/injection, schedule: Q04DX002 (ip), vehicle: Klucel (hydroxypropylcellulose) (HPC)
[12] = dose: 400.0 mg/kg/injection, schedule: Q04DX002 (ip), vehicle: Klucel (hydroxypropylcellulose) (HPC)
[13] = dose: 50.0 mg/kg/injection, schedule: Q01DX009 (ip), vehicle: saline
[14] = dose: 100.0 mg/kg/injection, schedule: Q01DX001 (ip), vehicle: carboxymethylcellulose (CMC)
[15] = dose: 200.0 mg/kg/injection, schedule: Q01DX001 (ip), vehicle: carboxymethylcellulose (CMC)
[16] = dose: 100.0 mg/kg/injection, schedule: Q01DX009 (ip), vehicle: saline with Tween-80
[17] = dose: 200.0 mg/kg/injection, schedule: Q01DX009 (ip), vehicle: saline with Tween-80
[18] = dose: 400.0 mg/kg/injection, schedule: Q01DX009 (ip), vehicle: saline with Tween-80
[19] = dose: 50.0 mg/kg/injection, schedule: Q01DX001 (ip), vehicle: carboxymethylcellulose (CMC)
[20] = dose: 400.0 mg/kg/injection, schedule: Q01DX001 (ip), vehicle: carboxymethylcellulose (CMC)

Measured: T/C

OCCC1CNCCN1.[Cl][Pd]([Cl])([Cl])[Cl] (stereo not given)
inactive: dose: 100.0 mg/kg/injection, schedule: Q01DX001 (ip), vehicle: DMSO 98 % of control | dose: 200.0 mg/kg/injection, schedule: Q01DX001 (ip), vehicle: DMSO 91 % of control

CC(=O)Nc1cccc(C(C)=O)c1[N+](=O)[O-]
inactive: [1] 100 % of control | [2] 94 % of control | [3] 100 % of control

BrC1CCCCN1Cc1cc2ccccc2cc1CN1CCCCC1Br (stereo not given)
inactive: dose: 9.38 mg/kg/injection, schedule: Q01DX001 (ip), vehicle: other 100 % of control | dose: 18.75 mg/kg/injection, schedule: Q01DX001 (ip), vehicle: other 102 % of control

C1=Cc2ccccc2C(c2ccccn2)c2ccccc21
inactive: dose: 100.0 mg/kg/injection, schedule: Q04DX003 (ip), vehicle: gum acacia 90 % of control | dose: 200.0 mg/kg/injection, schedule: Q04DX003 (ip), vehicle: gum acacia 97 % of control | dose: 400.0 mg/kg/injection, schedule: Q04DX003 (ip), vehicle: gum acacia 93 % of control

Oc1cc2c(cc1O)C1c3ccc(O)c(O)c3OCC1(O)C2 (stereo not given)
inactive: [4] 102 % of control | [5] 110 % of control | [6] 104 % of control | [7] 104 % of control | [8] 101 % of control | [9] 102 % of control

C1=C(c2ccccc2)N(C2CCCCCC2)C(c2ccccc2)=CN1Cc1ccccc1
inactive: [10] 96 % of control | [11] 107 % of control | [12] 100 % of control

CC(c1ccccc1)n1cncc1C(=O)N(C)C (stereo not given)
inactive: [13] 96 % of control | [4] 101 % of control | [5] 97 % of control | [6] 97 % of control | [7] 93 % of control

CC1(C#N)CCC2c3ccccc3CCC2C1=O (stereo not given)
inactive: [4] 95 % of control | [5] 100 % of control | [6] 96 % of control | [7] 98 % of control | [8] 106 % of control | [9] 97 % of control

O=C(CBr)c1ccc(I)cc1
inactive: dose: 3.13 mg/kg/injection, schedule: Q01DX009 (ip), vehicle: saline with Tween-80 92 % of control | dose: 6.25 mg/kg/injection, schedule: Q01DX009 (ip), vehicle: saline with Tween-80 95 % of control | dose: 12.5 mg/kg/injection, schedule: Q01DX009 (ip), vehicle: saline with Tween-80 97 % of control | dose: 25.0 mg/kg/injection, schedule: Q01DX009 (ip), vehicle: saline with Tween-80 100 % of control | [14] 91 % of control | [15] 101 % of control

CCOC(=O)N(CCCl)C(=O)C(C)C
inactive: [16] 92 % of control | [17] 96 % of control | [18] 94 % of control

CC(C)CC(CO)Cc1nc2ccccc2[nH]1 (stereo not given)
inactive: dose: 50.0 mg/kg/injection, schedule: Q04DX002 (ip), vehicle: Klucel (hydroxypropylcellulose) (HPC) 95 % of control | [10] 95 % of control | dose: 100.0 mg/kg/injection, schedule: Q04DX002 (ip), vehicle: other 105 % of control | dose: 100.0 mg/kg/injection, schedule: Q04DX003 (ip), vehicle: other 97 % of control | [11] 93 % of control and 92 % of control | dose: 200.0 mg/kg/injection, schedule: Q04DX002 (ip), vehicle: other 91 % of control and 92 % of control | dose: 200.0 mg/kg/injection, schedule: Q04DX003 (ip), vehicle: other 94 % of control | [12] 105 % of control | dose: 400.0 mg/kg/injection, schedule: Q04DX002 (ip), vehicle: other 102 % of control

CC12OC1(C)C1(C)C3(C)OC3(C)C21C (stereo not given)
inactive: dose: 50.0 mg/kg/injection, schedule: Q01DX009 (ip), vehicle: Klucel (hydroxypropylcellulose) (HPC) 97 % of control | dose: 100.0 mg/kg/injection, schedule: Q01DX001 (ip), vehicle: Klucel (hydroxypropylcellulose) (HPC) 100 % of control | dose: 100.0 mg/kg/injection, schedule: Q01DX009 (ip), vehicle: Klucel (hydroxypropylcellulose) (HPC) 96 % of control | dose: 200.0 mg/kg/injection, schedule: Q01DX001 (ip), vehicle: Klucel (hydroxypropylcellulose) (HPC) 100 % of control | dose: 200.0 mg/kg/injection, schedule: Q01DX009 (ip), vehicle: Klucel (hydroxypropylcellulose) (HPC) 96 % of control

OCCN1CCN(C(=S)[S-])CC1.OCCN1CCN(C(=S)[S-])CC1.[Zn]
inactive: dose: 10.0 mg/kg/injection, schedule: Q04DX003 (ip), vehicle: saline 93 % of control | dose: 20.0 mg/kg/injection, schedule: Q04DX003 (ip), vehicle: saline 90 % of control

COc1cc(NC(C)=O)c2ncccc2c1NC(C)=O
inactive: [19] 96 % of control | [14] 102 % of control | [15] 96 % of control | [20] 94 % of control

O=c1[nH]c2ccccc2c2ccccc12
inactive: [1] 92 % of control | [2] 97 % of control | [3] 95 % of control

CCNCc1ccc(OC)cc1
inactive: dose: 25.0 mg/kg/injection, schedule: Q01DX009 (ip), vehicle: saline 101 % of control | [13] 93 % of control | [4] 100 % of control | [1] 120 % of control

CO[C@H]1C=CC2=CCN3CCC4=C(CC(=O)OC4)[C@]23C1
inactive: dose: 10.0 mg/kg/injection, schedule: Q01DX001 (ip), vehicle: saline 104 % of control | dose: 20.0 mg/kg/injection, schedule: Q01DX001 (ip), vehicle: saline 96 % of control

CCCCCCCCCCCCCCCCOc1ccc(OC)cc1
inactive: dose: 100.0 mg/kg/injection, schedule: Q04DX003 (ip), vehicle: Klucel (hydroxypropylcellulose) (HPC) 102 % of control | dose: 200.0 mg/kg/injection, schedule: Q04DX003 (ip), vehicle: Klucel (hydroxypropylcellulose) (HPC) 92 % of control | dose: 400.0 mg/kg/injection, schedule: Q04DX003 (ip), vehicle: Klucel (hydroxypropylcellulose) (HPC) 92 % of control

COC(=O)Nc1cccc(OC(=O)NCC(C)C)c1
inactive: [16] 87 % of control | [17] 91 % of control | [18] 96 % of control

O=C(Nc1ccc(Cl)cc1C(=O)c1ccccc1)c1ccc([N+](=O)[O-])cc1
inactive: [10] 89 % of control | [11] 95 % of control | [12] 92 % of control

Cc1ccc(C)c(S(=O)(=O)OCC2CO2)c1 (stereo not given)
inactive: [1] 104 % of control | [2] 101 % of control | [3] 101 % of control

Nc1cc(=O)[nH]c(=S)n1-c1ccc(I)cc1
inactive: dose: 50.0 mg/kg/injection, schedule: Q01DX001 (ip), vehicle: saline 100 % of control | dose: 100.0 mg/kg/injection, schedule: Q01DX001 (ip), vehicle: saline 106 % of control | dose: 200.0 mg/kg/injection, schedule: Q01DX001 (ip), vehicle: saline 102 % of control | dose: 400.0 mg/kg/injection, schedule: Q01DX001 (ip), vehicle: saline 100 % of control

COc1cc(CCCc2cccc(O)c(=O)c2)cc(OC)c1OC
inactive: dose: 100.0 mg/kg/injection, schedule: Q04DX002 (ip), vehicle: saline with Tween-80 91 % of control and 103 % of control | dose: 200.0 mg/kg/injection, schedule: Q04DX002 (ip), vehicle: saline with Tween-80 105 % of control and 89 % of control | dose: 400.0 mg/kg/injection, schedule: Q04DX002 (ip), vehicle: saline with Tween-80 108 % of control and 116 % of control

O=S(=O)(Sc1ccc(N(CCCl)CCCl)cc1)c1ccc(N(CCCl)CCCl)cc1
inactive: [19] 109 % of control | [14] 100 % of control | [15] 117 % of control | [20] 109 % of control

O=C(CC1C(=O)Nc2ccccc21)c1ccccc1 (stereo not given)
inactive: [10] 91 % of control | [11] 105 % of control | [12] 91 % of control

COC(=O)C1C(=O)CCC2CN3CCc4c([nH]c5ccccc45)C3CC21 (stereo not given)
inactive: dose: 12.5 mg/kg/injection, schedule: Q04DX002 (ip), vehicle: saline with Tween-80 94 % of control | dose: 25.0 mg/kg/injection, schedule: Q04DX002 (ip), vehicle: saline with Tween-80 100 % of control | dose: 50.0 mg/kg/injection, schedule: Q04DX002 (ip), vehicle: saline with Tween-80 90 % of control

O=C(COc1ccc(F)cc1Cl)OCCOCCO
inactive: [10] 106 % of control | [11] 95 % of control | [12] 106 % of control
